This is an account of results in doi:10.1101/2025.09.09.675175v1 (biorxiv, 2025).

In general, Ki refers to the equilibrium dissociation constant of an inhibitor or competing ligand from its target. Lower therefore signals tighter binding. One may read the Kd as a measure of binding affinity in units of concentration. The low end stands for a tighter complex, the high end for a looser complex.

Experiment [1] addresses T1, GdpP-C (GdpP313-656) (Staphylococcus aureus, UniProt Q2G2T6).
T1 sequence (Q2G2T6 313-655): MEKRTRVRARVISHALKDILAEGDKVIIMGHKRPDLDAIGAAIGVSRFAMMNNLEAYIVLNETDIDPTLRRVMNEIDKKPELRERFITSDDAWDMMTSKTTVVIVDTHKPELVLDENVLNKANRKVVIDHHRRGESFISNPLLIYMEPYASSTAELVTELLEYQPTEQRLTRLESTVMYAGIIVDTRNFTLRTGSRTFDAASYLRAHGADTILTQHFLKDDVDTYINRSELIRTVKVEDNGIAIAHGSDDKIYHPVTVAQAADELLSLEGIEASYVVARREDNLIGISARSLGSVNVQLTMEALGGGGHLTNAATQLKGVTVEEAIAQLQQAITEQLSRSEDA
Description: phosphomolybdate blue Pi release, Michaelis-Menten fit. It is filed as biochemical.

Experiment [2] has as its target T1, GdpP-C (GdpP313-656). The experiment can be described thus: isothermal titration calorimetry. The experiment is classed as binding. On the technique in general: Isothermal titration calorimetry measures the heat released or taken up as one component is titrated into another.

The compound `CC(=O)CCCCn1c(=O)c2c(ncn2C)n(C)c1=O` [pentoxifylline] had a Ki at GdpP-C (GdpP313-656) [1] of 68.3 µM. Moreover, binding at GdpP-C (GdpP313-656) [2] was put at a Kd of 33.2 µM.
